Assay results reported in ChEMBL document CHEMBL4699460, “Integrating DNA-encoded chemical libraries with virtual combinatorial library screening: Optimizing a PARP10 inhibitor” (Bioorg Med Chem Lett, 2020).

Assays:
[1] = biological target: Poly [ADP-ribose] polymerase 2 (Homo sapiens) (UniProt Q9UGN5); test: (§1) Inhibition of N-terminal GST tagged human PARP2 (2 to 583 residues) expressed in baculovirus infected Sf9 cells assessed as reduction in NAD+-dependent ADP ribosylation using histone as substrate at 10 uM incubated for 1 hr in presence of biotinylated NAD+ and activated DNA by chemiluminescence based microplate reader assay relative to control
[2] = biological target: T1, Protein mono-ADP-ribosyltransferase TIPARP (Homo sapiens) (UniProt Q7Z3E1); test: as §1, with “FLAG-tagged” for “GST tagged”, “PARP7 (400” for “PARP2 (2”, “657” for “583”
T1 sequence (whole entry): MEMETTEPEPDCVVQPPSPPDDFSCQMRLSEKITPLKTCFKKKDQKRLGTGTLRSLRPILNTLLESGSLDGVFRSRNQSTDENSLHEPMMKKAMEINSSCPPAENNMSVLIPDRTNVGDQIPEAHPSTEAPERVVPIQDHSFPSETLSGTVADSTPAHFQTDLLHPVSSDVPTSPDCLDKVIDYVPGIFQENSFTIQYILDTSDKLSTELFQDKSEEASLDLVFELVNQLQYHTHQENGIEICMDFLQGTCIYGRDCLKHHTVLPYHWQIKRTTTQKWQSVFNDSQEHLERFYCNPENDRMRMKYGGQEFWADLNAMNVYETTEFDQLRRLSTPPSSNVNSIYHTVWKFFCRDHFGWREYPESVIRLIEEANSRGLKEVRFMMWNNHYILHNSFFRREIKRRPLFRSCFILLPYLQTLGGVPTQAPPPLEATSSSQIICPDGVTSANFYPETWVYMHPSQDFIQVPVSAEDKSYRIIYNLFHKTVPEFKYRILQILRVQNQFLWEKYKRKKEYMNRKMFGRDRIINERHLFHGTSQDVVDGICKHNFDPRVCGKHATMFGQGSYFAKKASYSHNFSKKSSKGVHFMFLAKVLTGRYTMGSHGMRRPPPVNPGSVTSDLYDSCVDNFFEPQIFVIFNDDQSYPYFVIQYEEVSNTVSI

[3] = biological target: T2, Protein mono-ADP-ribosyltransferase PARP8 (Homo sapiens) (UniProt Q8N3A8); test: Inhibition of PARP8 (unknown origin) assessed as reduction in NAD+-dependent ADP ribosylation using histone as substrate at 10 uM incubated for 1 hr in presence of biotinylated NAD+ and activated DNA by chemiluminescence based microplate reader assay relative to control
T2 sequence (whole entry): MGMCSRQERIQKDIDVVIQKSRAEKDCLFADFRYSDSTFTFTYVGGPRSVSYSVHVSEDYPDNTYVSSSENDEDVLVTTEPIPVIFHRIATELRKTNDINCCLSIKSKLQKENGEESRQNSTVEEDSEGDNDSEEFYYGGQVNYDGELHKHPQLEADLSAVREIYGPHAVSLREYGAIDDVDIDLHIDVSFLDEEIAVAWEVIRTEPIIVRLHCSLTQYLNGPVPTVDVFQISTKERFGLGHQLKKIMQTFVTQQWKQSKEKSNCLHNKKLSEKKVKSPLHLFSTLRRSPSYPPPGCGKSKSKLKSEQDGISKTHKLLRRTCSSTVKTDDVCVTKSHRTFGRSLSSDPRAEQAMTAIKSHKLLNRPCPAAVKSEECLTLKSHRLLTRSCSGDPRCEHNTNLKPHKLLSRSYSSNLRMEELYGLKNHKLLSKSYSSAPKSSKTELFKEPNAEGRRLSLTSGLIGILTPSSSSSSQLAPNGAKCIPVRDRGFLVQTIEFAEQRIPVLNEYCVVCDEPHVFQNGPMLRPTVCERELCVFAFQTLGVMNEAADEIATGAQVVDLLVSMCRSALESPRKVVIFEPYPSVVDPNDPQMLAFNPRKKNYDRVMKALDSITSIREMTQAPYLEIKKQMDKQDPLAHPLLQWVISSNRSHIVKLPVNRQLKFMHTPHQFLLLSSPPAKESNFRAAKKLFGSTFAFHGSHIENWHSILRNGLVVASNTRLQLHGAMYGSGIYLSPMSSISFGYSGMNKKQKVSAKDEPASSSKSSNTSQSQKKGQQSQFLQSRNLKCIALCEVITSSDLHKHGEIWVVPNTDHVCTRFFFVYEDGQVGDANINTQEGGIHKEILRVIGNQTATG

[4] = biological target: T3, Protein mono-ADP-ribosyltransferase PARP11 (Homo sapiens) (UniProt Q9NR21); test: as §1, with “PARP11 (8” for “PARP2 (2”, “338” for “583”
T3 sequence (whole entry): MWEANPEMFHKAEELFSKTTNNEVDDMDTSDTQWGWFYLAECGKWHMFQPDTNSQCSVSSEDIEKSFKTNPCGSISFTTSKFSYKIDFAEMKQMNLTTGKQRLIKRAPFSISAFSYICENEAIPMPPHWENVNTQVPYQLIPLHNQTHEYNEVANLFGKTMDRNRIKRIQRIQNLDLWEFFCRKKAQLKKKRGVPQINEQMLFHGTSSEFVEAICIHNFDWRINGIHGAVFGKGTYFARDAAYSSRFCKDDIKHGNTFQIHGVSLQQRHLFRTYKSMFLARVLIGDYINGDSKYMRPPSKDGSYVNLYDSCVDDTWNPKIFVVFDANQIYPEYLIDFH

Sequence of Poly [ADP-ribose] polymerase 2 (Homo sapiens) (Q9UGN5 whole entry, the tested form may be a part): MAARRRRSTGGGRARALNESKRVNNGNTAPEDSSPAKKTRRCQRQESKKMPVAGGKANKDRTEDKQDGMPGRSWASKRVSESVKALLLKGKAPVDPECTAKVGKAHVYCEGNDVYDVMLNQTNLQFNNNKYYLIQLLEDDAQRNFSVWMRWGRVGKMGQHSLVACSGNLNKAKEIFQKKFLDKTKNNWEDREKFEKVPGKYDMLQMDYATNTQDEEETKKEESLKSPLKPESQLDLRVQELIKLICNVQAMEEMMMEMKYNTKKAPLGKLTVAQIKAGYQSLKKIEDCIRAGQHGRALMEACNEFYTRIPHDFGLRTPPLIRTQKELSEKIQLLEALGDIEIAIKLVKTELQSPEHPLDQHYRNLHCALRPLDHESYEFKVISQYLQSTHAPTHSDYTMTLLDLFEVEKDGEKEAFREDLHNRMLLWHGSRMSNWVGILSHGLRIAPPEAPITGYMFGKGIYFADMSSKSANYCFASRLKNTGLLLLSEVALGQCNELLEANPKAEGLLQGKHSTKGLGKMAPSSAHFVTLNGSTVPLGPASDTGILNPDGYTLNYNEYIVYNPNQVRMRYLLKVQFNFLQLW

inhibition [1]	inhibition [2]	inhibition [3]	inhibition [4]	SMILES
100%	> 50%	5%	> 50%	CC1(CNC(=O)COc2cccc3c2CCCC3=O)CCN(C(=O)CCc2nc3ccccc3[nH]c2=O)CC1
< 25%	< 25%	< 25%	< 25%	CNC(=O)[C@H](CNC(=O)CCc1nc2ccccc2[nH]c1=O)NC(=O)c1ccc2c(c1)CCCC2=O
